Measurements reported in US20180170903A1, “PYRIDIN-3-YL ACETIC ACID DERIVATIVES AS INHIBITORS OF HUMAN IMMUNODEFICIENCY VIRUS REPLICATION” (ViiV HEALTHCARE UK (NO.5) LIMITED, priority 2015, published 2018).
Where two headings read alike, the source gives them in different places.

Tested on: NL-RLuc virus (recombinant HIV NL4-3 proviral clone with Renilla Luciferase) in MT-2 cells
Experiment: Inhibition of HIV Replication (NL-RLuc luciferase reporter virus, MT-2 cells)
Type: cell-based
Settings: MT2, 120 h
Description: Inhibition of HIV Replication:
A recombinant NL-RLuc proviral clone was constructed in which a section of the nef gene from NL4-3 was replaced with the Renilla Luciferase gene. This virus is fully infectious and can undergo multiple cycles of replication in cell culture. In addition, the luciferous reporter provides a simple and easy method for quantitating the extent of virus growth and consequently, the antiviral activity of test compounds. The plasmid pNLRLuc contains the proviral NL-Rluc DNA cloned into pUC 18 at the PvuII site. The NL-RLuc virus was prepared by transfection of 293T cells with the plasmid pNLRLuc. Transfections were performed using the LipofectAMINE PLUS kit from Invitrogen (Carlsbad, Calif.) according to the manufacturer and the virus generated was titered in MT-2 cells. For susceptibility analyses, the titrated virus was used to infect MT-2 cells in the presence of compound, and after 5 days of incubation, cells were processed and quantitated for virus growth by the amount of expressed luciferase. Assay media was RPMI 1640 supplemented with 10% heat inactivated fetal bovine serum (FBS), 100 units/ml penicillin G/100 units/ml streptomycin, 10 mM HEPES buffer pH 7.55 and 2 mM L-glutamine. The results from at least 2 experiments were used to calculate the EC50 values. Luciferase was quantitated using the Dual Luciferase kit from Promega (Madison, Wis.). Susceptibility of viruses to compounds was determined by incubation in the presence of serial dilutions of the compound. The 50% effective concentration (EC50) was calculated by using the exponential form of the median effect equation where (Fa)=1/[1+(ED50/drug conc.)^m](Johnson V A, Byington R T. Infectivity Assay. In Techniques in HIV Research. ed. Aldovini A, Walker B D. 71-76. New York: Stockton Press. 1990). Activity equal to A refers to a compound having an EC50≤100 nM, while B and C denote compounds having an EC50 between 100 nM and 1 uM (B) or >1 uM (C).

| SMILES | EC50 (read-out: Activity) [µM] | EC50 (read-out: EC50 μM) [µM] |
| --- | --- | --- |
| Cc1cc(CNCc2ccc(-c3c(C)nc(C)c([C@H](OC(C)(C)C)C(=O)O)c3N3CCC(C)(C)CC3)cc2)ccc1F [Example 1, (S)-2-(tert-Butoxy)-2-(4-(4,4-dimethylpiperidin-1-yl)-5-(4-(((4-fluoro-3-methylbenzyl)amino)methyl)phenyl)-2,6-dimethylpyridin-3-yl)acetic acid] | < 0.1 | 0.013 |
| Cc1nc(C)c([C@H](OC(C)(C)C)C(=O)O)c(N2CCC(C)(C)CC2)c1-c1ccc(CN2CCOCC2)cc1 [Example 2, (S)-2-(tert-Butoxy)-2-(4-(4,4-dimethylpiperidin-1-yl)-2,6-dimethyl-5-(4-(morpholinomethyl)phenyl)pyridin-3-yl)acetic acid] | 0.1 to 1 | 0.113 |
| Cc1nc(C)c([C@H](OC(C)(C)C)C(=O)O)c(N2CCC(C)(C)CC2)c1-c1ccc(CN(Cc2ccc(F)cc2)CC2CCCO2)cc1 (stereo partly drawn) [Example 3, (2S)-2-(tert-Butoxy)-2-(4-(4,4-dimethylpiperidin-1-yl)-5-(4-(((4-fluorobenzyl) ((tetrahydrofuran-2-yl)methyl)amino)methyl)phenyl)-2,6-dimethylpyridin-3-yl)acetic acid] | < 0.1 |  |
| Cc1nc(C)c([C@H](OC(C)(C)C)C(=O)O)c(N2CCC(C)(C)CC2)c1-c1ccc(CNCc2ccc(F)cc2)cc1 [Example 4, (S)-2-(tert-butoxy)-2-(4-(4,4-dimethylpiperidin-1-yl)-5-(4-(((4-fluorobenzyl)amino)methyl)phenyl)-2,6-dimethylpyridin-3-yl)acetic acid] | < 0.1 |  |
| Cc1nc(C)c([C@H](OC(C)(C)C)C(=O)O)c(N2CCC(C)(C)CC2)c1-c1ccc(CN(C)CCc2ccc(F)cc2)cc1 [Example 5, (S)-2-(tert-butoxy)-2-(4-(4,4-dimethylpiperidin-1-yl)-5-(4-(((4-fluorophenethyl)(methyl)amino)methyl)phenyl)-2,6-dimethylpyridin-3-yl)acetic acid] | < 0.1 |  |
| Cc1nc(C)c([C@H](OC(C)(C)C)C(=O)O)c(N2CCC(C)(C)CC2)c1-c1ccc(CNCCC(C)(C)C)cc1 [Example 6, (S)-2-(tert-butoxy)-2-(5-(4-(((3,3-dimethylbutyl)amino)methyl)phenyl)-4-(4,4-dimethylpiperidin-1-yl)-2,6-dimethylpyridin-3-yl)acetic acid] | 0.1 to 1 |  |
| Cc1nc(C)c([C@H](OC(C)(C)C)C(=O)O)c(N2CCC(C)(C)CC2)c1-c1ccc(CN(C)Cc2ccc(F)cc2)cc1 [Example 7, (S)-2-(tert-butoxy)-2-(4-(4,4-dimethylpiperidin-1-yl)-5-(4-(((4-fluorobenzyl)(methyl)amino)methyl)phenyl)-2,6-dimethylpyridin-3-yl)acetic acid] | < 0.1 |  |
| COc1ccc(CCNCc2ccc(-c3c(C)nc(C)c([C@H](OC(C)(C)C)C(=O)O)c3N3CCC(C)(C)CC3)cc2)cc1 [Example 8, (S)-2-(tert-butoxy)-2-(4-(4,4-dimethylpiperidin-1-yl)-5-(4-(((4-methoxyphenethyl)amino)methyl)phenyl)-2,6-dimethylpyridin-3-yl)acetic acid] | < 0.1 | 0.09 |
| COc1ccccc1CCNCc1ccc(-c2c(C)nc(C)c([C@H](OC(C)(C)C)C(=O)O)c2N2CCC(C)(C)CC2)cc1 [Example 9, (S)-2-(tert-butoxy)-2-(4-(4,4-dimethylpiperidin-1-yl)-5-(4-(((2-methoxyphenethyl)amino)methyl)phenyl)-2,6-dimethylpyridin-3-yl)acetic acid] | < 0.1 |  |
| CON(Cc1ccc(F)cc1)Cc1ccc(-c2c(C)nc(C)c([C@H](OC(C)(C)C)C(=O)O)c2N2CCC(C)(C)CC2)cc1 [Example 10, (S)-2-(tert-butoxy)-2-(4-(4,4-dimethylpiperidin-1-yl)-5-(4-(((4-fluorobenzyl)(methoxy)amino)methyl)phenyl)-2,6-dimethylpyridin-3-yl)acetic acid] | < 0.1 |  |
| Cc1nc(C)c([C@H](OC(C)(C)C)C(=O)O)c(N2CCC(C)(C)CC2)c1-c1ccc(CNCCc2ccc(F)cc2)cc1 [Example 11, (S)-2-(tert-butoxy)-2-(4-(4,4-dimethylpiperidin-1-yl)-5-(4-(((4-fluorophenethyl)amino)methyl)phenyl)-2,6-dimethylpyridin-3-yl)acetic acid] | < 0.1 |  |
| Cc1nc(C)c([C@H](OC(C)(C)C)C(=O)O)c(N2CCC(C)(C)CC2)c1-c1ccc(CNCc2ccc(Cl)c(Cl)c2)cc1 [Example 12, (S)-2-(tert-butoxy)-2-(5-(4-(((3,4-dichlorobenzyl)amino)methyl)phenyl)-4-(4,4-dimethylpiperidin-1-yl)-2,6-dimethylpyridin-3-yl)acetic acid] | < 0.1 |  |
| Cc1nc(C)c([C@H](OC(C)(C)C)C(=O)O)c(N2CCC(C)(C)CC2)c1-c1ccc(CNCCC2CCCCC2)cc1 [Example 13, (S)-2-(tert-butoxy)-2-(5-(4-(((2-cyclohexylethyl)amino)methyl)phenyl)-4-(4,4-dimethylpiperidin-1-yl)-2,6-dimethylpyridin-3-yl)acetic acid] | 0.1 to 1 |  |
| Cc1nc(C)c([C@H](OC(C)(C)C)C(=O)O)c(N2CCC(C)(C)CC2)c1-c1ccc(CNCc2ccccc2)cc1 [Example 14, (S)-2-(5-(4-((benzylamino)methyl)phenyl)-4-(4,4-dimethylpiperidin-1-yl)-2,6-dimethylpyridin-3-yl)-2-(tert-butoxy)acetic acid] | < 0.1 |  |
| Cc1nc(C)c([C@H](OC(C)(C)C)C(=O)O)c(N2CCC(C)(C)CC2)c1-c1ccc(CNCc2ccc(Cl)cc2)cc1 [Example 15, (S)-2-(tert-butoxy)-2-(5-(4-(((4-chlorobenzyl)amino)methyl)phenyl)-4-(4,4-dimethylpiperidin-1-yl)-2,6-dimethylpyridin-3-yl)acetic acid] | < 0.1 |  |
| Cc1ccc(CNCc2ccc(-c3c(C)nc(C)c([C@H](OC(C)(C)C)C(=O)O)c3N3CCC(C)(C)CC3)cc2)cc1 [Example 16, (S)-2-(tert-butoxy)-2-(4-(4,4-dimethylpiperidin-1-yl)-2,6-dimethyl-5-(4-(((4-methylbenzyl)amino)methyl)phenyl)pyridin-3-yl)acetic acid] | < 0.1 |  |
| Cc1nc(C)c([C@H](OC(C)(C)C)C(=O)O)c(N2CCC(C)(C)CC2)c1-c1ccc(CNCC2CCCCC2)cc1 [Example 17, (S)-2-(tert-butoxy)-2-(5-(4-(((cyclohexylmethyl)amino)methyl)phenyl)-4-(4,4-dimethylpiperidin-1-yl)-2,6-dimethylpyridin-3-yl)acetic acid] | 0.1 to 1 |  |
| COC(=O)c1ccc(CNCc2ccc(-c3c(C)nc(C)c([C@H](OC(C)(C)C)C(=O)O)c3N3CCC(C)(C)CC3)cc2)cc1 [Example 18, (S)-2-(tert-butoxy)-2-(4-(4,4-dimethylpiperidin-1-yl)-5-(4-(((4-(methoxycarbonyl)benzyl)amino)methyl)phenyl)-2,6-dimethylpyridin-3-yl)acetic acid] | 0.1 to 1 | 0.228 |
| Cc1nc(C)c([C@H](OC(C)(C)C)C(=O)O)c(N2CCC(C)(C)CC2)c1-c1ccc(CNCc2ccc(C(=O)O)cc2)cc1 [Example 19, (S)-4-(((4-(5-(tert-butoxy(carboxy)methyl)-4-(4,4-dimethylpiperidin-1-yl)-2,6-dimethylpyridin-3-yl)benzyl)amino)methyl)benzoic acid] | > 1 | 2.07 |
| Cc1nc(C)c([C@H](OC(C)(C)C)C(=O)O)c(N2CCC(C)(C)CC2)c1-c1ccc(CN(Cc2ccc(F)cc2)C(=O)C2CCCC2)cc1 [Example 20, (S)-2-(tert-butoxy)-2-(4-(4,4-dimethylpiperidin-1-yl)-5-(4-((N-(4-fluorobenzyl)cyclopentanecarboxamido)methyl)phenyl)-2,6-dimethylpyridin-3-yl)acetic acid] | < 0.1 |  |
| Cc1nc(C)c([C@H](OC(C)(C)C)C(=O)O)c(N2CCC(C)(C)CC2)c1-c1ccc(CN(Cc2ccc(F)cc2)C(=O)c2ccccc2)cc1 [Example 21, (S)-2-(tert-butoxy)-2-(4-(4,4-dimethylpiperidin-1-yl)-5-(4-((N-(4-fluorobenzyl)benamido)methyl)phenyl)-2,6-dimethylpyridin-3-yl)acetic acid] | < 0.1 |  |
| CCC(=O)N(Cc1ccc(F)cc1)Cc1ccc(-c2c(C)nc(C)c([C@H](OC(C)(C)C)C(=O)O)c2N2CCC(C)(C)CC2)cc1 [Example 22, (S)-2-(tert-butoxy)-2-(4-(4,4-dimethylpiperidin-1-yl)-5-(4-((N-(4-fluorobenzyl)propionamido)methyl)phenyl)-2,6-dimethylpyridin-3-yl)acetic acid] | < 0.1 |  |
| Cc1nc(C)c([C@H](OC(C)(C)C)C(=O)O)c(N2CCC(C)(C)CC2)c1-c1ccc(CN(Cc2ccc(F)cc2)C(=O)C(C)C)cc1 [Example 23, (S)-2-(tert-butoxy)-2-(4-(4,4-dimethylpiperidin-1-yl)-5-(4-((N-(4-fluorobenzyl)isobutyramido)methyl)phenyl)-2,6-dimethylpyridin-3-yl)acetic acid] | < 0.1 |  |
